Data taken from patent US20110105555A1, “SUBSTITUTED N-IMIDAZO[2,1-B]THIAZOLE-5-SULFONAMIDE DERIVATIVES AS 5-HT6 LIGANDS” (priority 2008, published 2011).
Structures can show the parent of a compound that is named as a salt.

Experiments:
[1] = molecular target: T1, 5HT6-human recombinant receptor (Homo sapiens, UniProt P50406); assay: Binding to serotonin receptor 5-HT6 ([3H]-LSD radioligand, HEK-293 cell membranes); set-up: purchased Receptor Biology; host or cells: HEK-293 cells (membranes); details: [3H]-LSD 2.7 nM, 60 minutes at 37° C., tests in triplicate
T1 sequence (P50406 whole entry): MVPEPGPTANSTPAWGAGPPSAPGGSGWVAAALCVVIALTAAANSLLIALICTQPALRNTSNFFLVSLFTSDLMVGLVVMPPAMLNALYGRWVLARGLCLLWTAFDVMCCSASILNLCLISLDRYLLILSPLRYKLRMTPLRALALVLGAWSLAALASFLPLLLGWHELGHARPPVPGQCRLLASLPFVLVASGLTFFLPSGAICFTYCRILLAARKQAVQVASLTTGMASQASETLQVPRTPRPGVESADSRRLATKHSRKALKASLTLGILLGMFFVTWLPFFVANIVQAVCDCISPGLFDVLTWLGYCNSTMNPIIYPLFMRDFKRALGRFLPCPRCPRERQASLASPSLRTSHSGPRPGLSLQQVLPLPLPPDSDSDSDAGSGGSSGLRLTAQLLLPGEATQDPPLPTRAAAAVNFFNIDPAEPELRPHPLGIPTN
Method: Binding to Serotonin Receptor 5ht6
Cell membranes of HEK-293 cells expressing the 5HT6-human recombinant receptor were supplied by Receptor Biology. In said membranes the receptor concentration is 2.18 pmol/mg protein and the protein concentration is 9.17 mg/ml. The experimental protocol follows the method of B. L. Roth et al. [B. L. Roth et al., The Journal of Pharmacology and Experimental Therapeutics, 1994, 268, 1403] with the following slight changes. The respective part of the literature description is hereby incorporated by reference and forms part of the disclosure.
The commercial membrane is diluted (1:40 dilution) with the binding buffer: 50 mM Tris-HCl, 10 mM MgCl2, 0.5 mM EDTA (pH 7.4). The radioligand used is [^3H]-LSD at a concentration of 2.7 nM with a final volume of 200 μl. incubation is initiated by adding 100 μl of membrane suspension, (≈22.9 μg membrane protein), and is prolonged for 60 minutes at a temperature of 37° C. The incubation is ended by fast filtration in a Brandel Cell Harvester through fiber glass filters made by Schleicher & Schnell GF 3362 pretreated with a solution of polyethylenimine at 0.5%. The filters are washed three times with three milliliters of buffer Tris-HCl 50 mM pH 7.4. The filters are transferred to flasks and 5 ml of Ecoscint H liquid scintillation cocktail are added to each flask. The flasks are allowed to reach equilibrium for several hours before counting with a Wallac Winspectral 1414 scintillation counter. Non-specific binding is determined in the presence of 100 μM of serotonin, Tests were made in triplicate. The inhibition constants (Ki, nM) were calculated by non-linear regression analysis using the program EBDA/LIGAND described in Munson and Rodbard, Analytical Biochemistry, 1980, 107, 220, which is hereby incorporated by reference and forms part of the disclosure.

[2] = in vivo; cited from earlier work
[3] = molecular target: T1, 5HT6-human recombinant receptor; details: cited from earlier work

SMILES	Ki [1]	further results
O=S(=O)(Nc1ccc2c(c1)CCC2)c1c(Cl)nc2sccn12 [Compound 1, 6-Chloro-imidazo[2,1-b] thiazole-5-sulfonic acid indan-5-ylamide]	11.1 nM	
O=S(=O)(Nc1ccc2ncsc2c1)c1c(Cl)nc2sccn12 [Compound 3, 6-Chloro-imidazo[2,1-b] thiazole-5-sulfonic acid benzothiazol-6-ylamide]	12.7 nM	
Cc1nc2cc(NS(=O)(=O)c3c(Cl)nc4sccn34)ccc2s1 [Compound 4, 6-Chloro-imidazo[2,1-b] thiazole-5-sulfonic acid (2-methyl-benzothiazol-5-yl)-amide]	14.5 nM	
Cn1ccc2cc(NS(=O)(=O)c3c(Cl)nc4sccn34)ccc21 [Compound 15, 6-Chloro-imidazo[2,1-b] thiazole-5-sulfonic acid (1methyl-1H-indol-5-yl)-amide]	23 nM	
CN(C)c1ccc(NS(=O)(=O)c2c(Cl)nc3sccn23)cc1 [Compound 16, 6-Chloro-imidazo[2,1-b] thiazole-5-sulfonic acid (4-dimethylamino-phenyl)-amide]	8.7 nM	
CC(=O)N1CCc2cc(NS(=O)(=O)c3c(Cl)nc4sccn34)ccc21 [Compound 19, 6-Chloro-imidazo[2,1-b]thiazole-5-sulfonic acid (1-acetyl-2,3-dihydro-1H-indol-5-yl)-amide]	1.6 nM	
CC(=O)N1CCc2ccc(NS(=O)(=O)c3c(Cl)nc4sccn34)cc21 [Compound 20, 6-Chloro-imidazo[2,1-b]thiazole-5-sulfonic acid (1-acetyl-2,3-dihydro-1H-indol-6-yl)-amide]	12.8 nM	
O=S(=O)(Nc1ccc2c(c1)CCN2)c1c(Cl)nc2sccn12 [Compound 23, 6-Chloro-imidazo[2,1-b]thiazole-5-sulfonic acid (2,3-dihydro-1H-indol-5-yl)-amide hydrochloride]	20 nM	
O=S(=O)(Nc1ccc2[nH]ncc2c1)c1c(Cl)nc2sccn12 [Compound 25, 6-Chloro-imidazo[2,1-b]thiazole-5-sulfonic acid (1H-indazol-5-yl)-amide hydrochloride]	5.7 nM	
O=C1CCc2ccc(NS(=O)(=O)c3c(Cl)nc4sccn34)cc21 [Compound 28, 6-Chloro-imidazo[2,1-b]thiazole-5-sulfonic acid (3-oxo-indan-5-yl)-amide]	7.1 nM	
O=S(=O)(Nc1ccc2c(c1)CCCC2)c1c(Cl)nc2sccn12 [Compound 30, 6-Chloro-imidazo[2,1-b]thiazole-5-sulfonic acid (5,6,7,8-tetrahydro-naphthalen-2-yl)-amide]	19 nM	
O=S(=O)(Nc1ccc2c(c1)COC2)c1c(Cl)nc2sccn12 [Compound 31, 6-Chloro-imidazo[2,1-b]thiazole-5-sulfonic acid (1,3-dihydro-isobenzo furan-5-yl)-amide]	68 nM	
CCN(CC)c1ccc(NS(=O)(=O)c2c(Cl)nc3sccn23)cc1 [Compound 32, 6-Chloro-imidazo[2,1-b]thiazole-5-sulfonic acid (4-diethylamino-phenyl)-amide hydrochloride]	5.4 nM	
O=S(=O)(Nc1ccc2c(c1)NCC2)c1c(Cl)nc2sccn12 [Compound 34, 6-Chloro-imidazo[2,1-b]thiazole-5-sulfonic acid (2,3-dihydro-1H-indol-6-yl)-amide]	7.4 nM	
O=S(=O)(Nc1ccc2[nH]ccc2c1)c1c(Br)nc2sccn12 [Compound 36, 6-Bromo-imidazo[2,1-b]thiazole-5-sulfonic acid (1H-indol-5-yl)-amide]	10 nM	
CC(=O)N1CCc2cc(NS(=O)(=O)c3c(Br)nc4sccn34)ccc21 [Compound 37, 6-Bromo-imidazo[2,1-b]thiazole-5-sulfonic acid (1-acetyl-2,3-dihydro-1H-indol-5-yl)-amide]	1.3 nM	
CC(=O)N1CCc2ccc(NS(=O)(=O)c3c(Br)nc4sccn34)cc21 [Compound 38, 6-Bromo-imidazo[2,1-b]thiazole-5-sulfonic acid (1-acetyl-2,3-dihydro-1H-indol-6-yl)-amide]	37.2 nM	
O=C1CCc2ccc(NS(=O)(=O)c3c(Br)nc4sccn34)cc21 [Compound 41, 6-Bromo-imidazo[2,1-b]thiazole-5-sulfonic acid (3-oxo-indan-5-yl)-amide hydrochloride]	4.9 nM	
CC(C)(C)OC(=O)n1ncc2cc(NS(=O)(=O)c3c(Br)nc4sccn34)ccc21 [Compound 60, 5-(6-Bromo-imidazo[2,1-b]thiazole-5-sulfonylamino)-indazole-1-carboxylic acid tert-butyl ester]	6.6 nM	
CN(C)CCc1c[nH]c2ccc(NS(=O)(=O)c3ccc4c(Cl)cccc4c3)cc12 [Compound E-6837, 5-chloro-N-[3-(2-(dimethylamino)ethyl)-1H-indol-5-yl]naphthalene-2-sulphonamide]		body weight [2]: significant body weight loss; food intake [2]: reduction in the food intake; binding for the recombinant human 5-HT6 receptor [3]: selective and high affinity binding
